# Measured values published in ChEMBL document CHEMBL5325418, “Studies on diketopiperazine and dipeptide analogs as opioid receptor ligands” (Eur J Med Chem, 2023).
# Square brackets hold non-standard residues; d marks the D form. Peptide text beside a SMILES is read from it. ξ: configuration not given here. ξPhe(3-OMe) = COc1cccc(CC(N)C(=O)O)c1; ξPhe(2-I) = NC(Cc1ccccc1I)C(=O)O; Nphe = O=C(O)CNCc1ccccc1
# Assays:
# [1] = biological target: Kappa-type opioid receptor (Homo sapiens, UniProt P41145); assay: Displacement of [3H]U69593 from human KOR expressed in HEK cell membranes assessed as inhibition constant incubated for 60 mins by microbeta 2 scintillation counting method; design: species or system Cell membrane
# Chain of Kappa-type opioid receptor (P41145 whole entry): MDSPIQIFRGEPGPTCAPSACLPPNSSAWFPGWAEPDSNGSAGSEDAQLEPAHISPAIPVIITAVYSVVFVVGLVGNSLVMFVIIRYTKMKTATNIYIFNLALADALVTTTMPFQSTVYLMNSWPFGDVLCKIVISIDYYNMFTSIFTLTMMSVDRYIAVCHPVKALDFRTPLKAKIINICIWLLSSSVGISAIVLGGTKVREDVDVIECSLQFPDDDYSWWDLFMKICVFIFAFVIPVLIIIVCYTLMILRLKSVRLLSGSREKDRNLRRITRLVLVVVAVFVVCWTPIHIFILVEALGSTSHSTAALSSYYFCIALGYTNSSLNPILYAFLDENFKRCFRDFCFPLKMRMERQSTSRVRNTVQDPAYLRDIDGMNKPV
# Mu-type opioid receptor = Mu-type opioid receptor (Homo sapiens, UniProt P35372); assay: Displacement of [3H]DAMGO from human MOR expressed in CHO cell membranes assessed as inhibition constant incubated for 60 mins by microbeta 2 scintillation counting method; design: species or system Cell membrane
# Chain of Mu-type opioid receptor (P35372 whole entry): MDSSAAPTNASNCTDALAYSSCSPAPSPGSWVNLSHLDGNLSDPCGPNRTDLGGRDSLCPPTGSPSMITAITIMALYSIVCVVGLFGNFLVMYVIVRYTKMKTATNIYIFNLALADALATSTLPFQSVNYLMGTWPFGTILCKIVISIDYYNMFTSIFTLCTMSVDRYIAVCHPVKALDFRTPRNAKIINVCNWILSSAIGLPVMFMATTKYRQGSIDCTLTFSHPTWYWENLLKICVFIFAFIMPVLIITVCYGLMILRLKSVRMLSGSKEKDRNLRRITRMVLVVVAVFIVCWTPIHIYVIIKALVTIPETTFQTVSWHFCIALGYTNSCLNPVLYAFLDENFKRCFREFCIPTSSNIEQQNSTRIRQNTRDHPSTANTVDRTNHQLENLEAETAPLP
# [2] = biological target: Delta-type opioid receptor (Homo sapiens, UniProt P41143); assay: Displacement of [3H]DADLE from human DOR expressed in CHO cell membranes assessed as inhibition constant incubated for 60 mins by microbeta 2 scintillation counting method; design: species or system Cell membrane
# Chain of Delta-type opioid receptor (P41143 whole entry): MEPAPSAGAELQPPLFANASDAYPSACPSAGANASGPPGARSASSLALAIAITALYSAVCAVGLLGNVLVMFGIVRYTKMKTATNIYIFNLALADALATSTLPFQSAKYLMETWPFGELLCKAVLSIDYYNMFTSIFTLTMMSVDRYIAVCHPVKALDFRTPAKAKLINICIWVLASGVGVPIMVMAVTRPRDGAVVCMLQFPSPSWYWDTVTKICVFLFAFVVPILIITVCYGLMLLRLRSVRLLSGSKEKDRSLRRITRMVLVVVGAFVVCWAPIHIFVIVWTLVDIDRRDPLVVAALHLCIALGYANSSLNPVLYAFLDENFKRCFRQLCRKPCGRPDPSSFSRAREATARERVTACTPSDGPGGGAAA
# Homo sapiens [3] = organism: Homo sapiens; assay: Selectivity ratio of Ki for displacement of [3H]DAMGO from human MOR expressed in CHO cell membranes to Ki for displacement of [3H]U69593 from human KOR expressed in HEK cell membranes
# Homo sapiens [4] = organism: Homo sapiens; assay: Selectivity ratio of Ki for displacement of [3H]DADLE from human DOR expressed in CHO cell membranes to Ki for displacement of [3H]U69593 from human KOR expressed in HEK cell membranes
# [5] = Metabolic stability in human plasma assessed as half life at 100 uM measured upto 24 hrs by LC-MS/MS analysis; assay type: ADME, cell-free
# [6] = Metabolic stability in Beagle dog plasma assessed as half life at 100 uM measured upto 24 hrs by LC-MS/MS analysis; assay type: ADME, cell-free, Canis lupus familiaris; settings: for half-life at 100 µM: Beagle
# [7] = Metabolic stability in Sprague-Dawley rat plasma assessed as half life at 100 uM measured upto 24 hrs by LC-MS/MS analysis; assay type: ADME, cell-free
# [8] = Metabolic stability in CD-1 mouse plasma assessed as half life at 100 uM measured upto 24 hrs by LC-MS/MS analysis; assay type: ADME, cell-free
# [9] = Metabolic stability in Sprague-Dawley rat liver microsomes assessed as intrinsic clearance at 100 uM measured upto 24 hrs in presence of NADPH by LC-MS/MS analysis; assay type: ADME, Microsome
# [10] = Plasma protein binding in human assessed as bound fraction at 1 uM by LC-MS/MS analysis; assay type: ADME, cell-free
# [11] = Plasma protein binding in dog assessed as bound fraction at 1 uM by LC-MS/MS analysis; assay type: ADME, cell-free, Canis lupus familiaris
# [12] = Plasma protein binding in rat assessed as bound fraction at 1 uM by LC-MS/MS analysis; assay type: ADME, cell-free
# [13] = Plasma protein binding in mouse assessed as bound fraction at 1 uM by LC-MS/MS analysis; assay type: ADME, cell-free
# BEND3 = assay: Apparent permeability coefficient of the compound across blood brain barrier in mouse BEND3 cells at 10 ug/ml measured upto 120 mins by LC-MS/MS analysis; assay type: functional, cell-based; settings: dose 10.0 µg/ml
Ki [1] [µM],Ki (Mu-type opioid receptor) [µM],Ki [2] [µM],Structure (SMILES),Ratio Ki (Homo sapiens [3]),Ratio Ki (Homo sapiens [4]),further results
> 10,> 10,> 10,COc1cccc(CC2NC(=O)CCN(Cc3ccccc3)C2=O)c1I (stereo not drawn),,,
2.17,> 10,> 10,COC(=O)C(Cc1cccc(OC)c1I)NC(=O)[C@@H](N)Cc1ccccc1 (mixture of isomers),> 5,> 5,
> 10,> 10,> 10,COC(=O)C(Cc1cccc(OC)c1)NC(=O)CNCc1ccccc1 (stereo not drawn) (H-[Nphe]-[ξPhe(3-OMe)]-OMe),,,
> 10,> 10,> 10,COC(=O)C(Cc1cccc(OC)c1I)NC(=O)CN(Cc1ccccc1)C(C)=O (stereo not drawn),,,
> 10,> 10,> 10,COC(=O)C(Cc1cccc(OC)c1I)NC(=O)CN(C)C(=O)OC(C)(C)C (stereo not drawn),,,
> 10,> 10,> 10,COc1cccc(CC(NC(=O)CNCc2ccccc2)C(=O)O)c1I (stereo not drawn),,,
> 10,> 10,> 10,O=C1CN(Cc2ccccc2)C(=O)C(Cc2cccc(O)c2I)N1 (stereo not drawn),,,
> 10,> 10,> 10,COC(=O)C(Cc1ccccc1I)NC(=O)CNCc1ccccc1 (stereo not drawn) (H-[Nphe]-[ξPhe(2-I)]-OMe),,,
1.44,> 10,> 10,COc1cccc(CC(NC(=O)CNCc2ccccc2)C(=O)OC(C)C)c1I (stereo not drawn),> 7,> 7,
> 10,> 10,> 10,COc1cccc(CC2NC(=O)CN(Cc3ccccc3)C2=O)c1 (stereo not drawn),,,
7,> 10,> 10,COc1cccc(CC2NC(=O)CN(CCCc3ccccc3)C2=O)c1I (stereo not drawn),> 1.4,> 1.4,
1.23,> 10,> 10,COC(=O)C(Cc1cccc(OC)c1I)NC(=O)CCNCc1ccccc1 (stereo not drawn),> 8,> 8,
> 10,> 10,> 10,COc1cccc(CC2NC(=O)[C@H](CC(C)C)NC2=O)c1I (stereo partly drawn),,,
5.11,> 10,> 10,COc1cccc(CC2NC(=O)CN(CCc3ccccc3)C2=O)c1I (stereo not drawn),> 1.9,> 1.9,
0.6,> 10,> 10,COc1cccc(CC2NC(=O)CN(Cc3ccccc3)C2=O)c1C (stereo not drawn),> 17,> 17,half-life at 100 µM [5]: > 24 h; half-life at 100 µM [6]: > 24 h; half-life at 100 µM [7]: > 24 h; half-life at 100 µM [8]: > 24 h; Intrinsic clearance [9]: 337.2 µL/min/mg; PPB [10]: 80.46%; PPB [11]: 86.67%; PPB [12]: 76.34%; PPB [13]: 86.29%; Pe (BEND3): 5.99 10^-3cm/min
> 10,> 10,> 10,COc1cccc(CC2NC(=O)CN(Cc3cccnc3)C2=O)c1I (stereo not drawn),,,
0.51,> 10,> 10,COc1cc(CC2NC(=O)CN(Cc3ccccc3)C2=O)c(I)c(OC)c1 (stereo not drawn),> 20,> 20,half-life at 100 µM [5]: > 24 h; half-life at 100 µM [6]: > 24 h; half-life at 100 µM [7]: > 24 h; half-life at 100 µM [8]: > 24 h; Intrinsic clearance [9]: 390.5 µL/min/mg; PPB [10]: 95.95%; PPB [11]: 89.68%; PPB [12]: 93.99%; PPB [13]: 91.69%; Pe (BEND3): 9.68 10^-3cm/min
> 10,> 10,> 10,COc1cccc(CC2NC(=O)[C@H](Cc3ccccc3)NC2=O)c1I (stereo partly drawn),,,
> 10,> 10,> 10,COC(=O)C(Cc1cccc(OC)c1I)NC(=O)CNCc1cccnc1 (stereo not drawn),,,
0.123,> 10,> 10,COC(=O)C(Cc1cccc(C)c1I)NC(=O)CNCc1ccccc1 (stereo not drawn),> 81,> 81,"t1/2 ([5]; 24 h, 100 µM): 2.4577 h; t1/2 ([6]; 24 h, 100 µM): 3.8202 h; half-life at 100 µM [7]: < 0.0167 h; half-life at 100 µM [8]: < 0.0167 h; Intrinsic clearance [9]: 1889 µL/min/mg; PPB [10]: 97.86%; Pe (BEND3): 21.5 10^-3cm/min"
